In US9617545B2, “Method for treating breast cancer by targeting breast cancer stem cell” (KYUNGPOOK NATIONAL UNIVERSITY INDUSTRY-ACADEMIC COOPERATION …, priority 2014, dated 2017):

Tests used:
xenografted tumor = conditions: administered to an animal into which tumor has been xenografted; cited from earlier work
MCF7 and MCF7/ADR cells = test: MTT assay: cell viability against doxorubicin; format: cell-based, human; conditions: MCF7/ADR cells compared with MCF7 cells; doxorubicin 0, 1, 2, 10, 25 μM; 24, 48, 72 hours; FIG. 2A
Protocol: A human breast cancer maternal cell line, MCF-7 (Korean Cell Line Bank), was continuously exposed to 1 μM of a drug, doxorubicin (Sigma). In this case, the maternal cell line was cultured in […] for at least one week to establish a breast cancer cell MCF7/ADR having induced drug resistance. Here, the cell culture was performed at 37° C. and 5% CO^2 in a DMEM medium (Hyclon, Logan, Utah) supplemented with 10% FBS and 1% penicillin.
To evaluate cytotoxicity of the anti-cancer agent (doxorubicin), a cell viability assay was performed using an MTT assay. First, cells were plated on a 96-well plate at a density of 5×10^3 cells/well, treated with the drug, and then cultured for 24, 48, and 72 hours. Thereafter, each well was treated with 5 mg/ml of MTT (AMRESCO), and the cells were cultured at 37° C. for 4 hours. Each well was treated with DMSO ([…]) to dissolve a formazan salt, and the amount of the formazan salt was determined by measuring an OD value at 540 nm using a microplate reader (Tecan Austria GmbH, Austria). […]
After 24, 48, and 72 hours when the MCF7 and MCF7/ADR cells were treated with doxorubicin (0, 1, 2, 10, and 25 μM), the cell viabilities were determined.

common cancer cells = test: Cell viability of common cancer cells under gene expression inhibitor; format: cell-based; conditions: treatment with the gene expression inhibitor; summary statement
P-glycoprotein (P-gp) = test: Western blotting of P-gp after siRNA knockdown in MCF7/ADR cells; format: cell-based, human; conditions: gene silenced with siRNA 20 nM, FIG. 7
Protocol: (§1) Proteins were electrophoresed on SDS-PAGE, and the separated proteins were transferred to a nitrocellulose membrane (Whatman), and then blocked at room temperature for 15 minutes in a TBS-5% non-fat milk solution supplemented with 0.1% Tween-20. The membrane was cultured overnight with a primary antibody at 4° C., cultured with a horseradish peroxidase-conjugated secondary antibody at room temperature for an hour, and developed using a West Pico chemiluminescent substrate (PIERCE).
(§2) The primary antibodies used herein were P-gp (Cell Signaling Technology, #12683, 1:1000), p-PI3K (Santa Cruz Biotechnology, sc-12929, 1:500), PI3K (Santa Cruz Biotechnology, sc-1637, 1:500), p-Akt (Cell Signaling Technology, #9271, 1:1000), Akt (Cell Signaling Technology, #9272, 1:1000), β-catenin (Cell Signaling Technology, #9562, 1:1000), and β-actin (Santa Cruz Biotechnology, sc-47778, 1:500).
(§3) siRNA transfection was performed using a Neon® Transfection system (Life technologies). After 48 hours, the expression of each gene was analyzed using qRT-PCR.
To further evaluate whether the six genes finally screened in Example 4 regulated the drug resistance and the size and number of CSC populations, the genes were knocked down with siRNA, and an expression level of P-gp was determined using western blotting. That is, the MCF7/ADR cells were transfected with siRNA of each gene, and an expression level of P-gp was measured.

MCF7/ADR cells [1] = test: Mammosphere formation assay after siRNA silencing; format: cell-based, human; conditions: for self-proliferation ability: genes silenced in the resistant cells, summary statement; for number and size of the mammospheres: MCF7/ADR cells, compared to the control, FIG. 10
Protocol: Since the breast cancer stem cells formed a mass of colonies in the form of floating spheres without attaching to a surface of a plate, the size and number of the masses were observed by a mammosphere formation assay to determine a cancer-stem-cell-specific effect.
Specifically, a single-cell suspension was cultured at a density of 1,000 to 15,000 cells/well (on an ultralow attachment culture plate (Corning CoStar)) using a MammoCult™ Human Medium kit (Stem Cell Technologies), and the spherical cells were counted and observed under a microscope.
as §3
To determine whether the EXT1 and LDHB regulated the self-renewal capacity of CSCs in the MCF7/ADR cells, a mammosphere formation assay was performed.

MCF7/ADR cells [2] = test: qRT-PCR of CSC, resistance and EMT markers after siRNA silencing; format: cell-based, human; conditions: for mRNA expression of markers (CD44, N-cadherin): FIG. 8B; for mRNA expression of markers (CD44, Integrin-α6, P-gp, Vimentin, N-cadherin, E-cadherin): FIG. 8A
Protocol: Total RNAs were extracted from the cultured cells using a TRIzoL reagent (Invitrogen), and cDNAs were synthesized using a cDNA synthetic kit (Promega) for reverse transcription-PCR.
In this case, the real-time PCR was performed in a Bio-Rad Real-Time PCR system using a SYBR Green PCR Master mix (Applied Biosystems), and the data was obtained by calculating an average value for separate experiments performed in at least triplicate.
as §3
Therefore, to determine whether EXT1, LDHB, CD109, EFEMP2, RASIP1, and SERPINE1 were associated with the aggressive phenotype of cancer, the mRNA expression levels of cancer stem cell markers (CD44, and Integrin-α6 (ITGA6)), a resistance marker (P-gp), and EMT markers (Vimentin, N-cadherin, and E-cadherin) were determined using qRT-PCR.

MCF7/ADR cells [3] = test: CD44+/CD24− assay (flow cytometric assay) after siRNA silencing; format: cell-based, human; conditions: for number of the cancer stem cells: genes silenced in the resistant cells, summary statement; for CD44+/CD24− population decreased by: MCF7/ADR cells transfected with siRNA, FIG. 9A
Protocol: To detect cancer stem cells (CSCs) in the MCF7 and MCF7/ADR cells, a breast cancer stem cell surface antigen, CD44+/CD24−, was assayed.
Specifically, the 1×10^6 cells were labeled with anti-human CD44-APC and CD24-PE (BD biosciences). In this case, the antibody was diluted with a 5% BSA solution. The cells were cultured at room temperature for 25 minutes, washed, re-suspended in […] of 5% BSA, and then detected using BD FACS Aria III.
as §3

[4] = system: PI3K-β-catenin signaling pathway; test: Western blot of PI3K-β-catenin signaling pathway factors after siRNA treatment; format: cell-based, human; conditions: MCF7/ADR cells treated with siRNA; FIG. 11
Protocol: as §1, §2, §3
Wnt signaling is a major pathway for maintaining stemness, and β-catenin is a particularly important regulator. Also, since the PI3K-Akt signaling pathway is known from previous research to regulate a Wnt-β-catenin signaling pathway, it was determined how the EXT1 and LDHB genes regulated the stemness, and whether the EXT1 and LDHB genes were associated with the pathways.
Therefore, it was confirmed that, when the MCF7/ADR cells were treated with siRNAs against the EXT1, LDHB, CD109, EFEMP2, RASIP1 and SERPINE1 genes (Table 3), the expression of β-catenin decreased, and the expression of phosphorylated PI3K (p-PI3K) in an active form of PI3K, and phosphorylated Akt (p-Akt) in an active form of Akt […] (see FIG. 11).

MCF7/ADR cells [5] = test: ALDEFLUOR assay (ALDH+ population) after siRNA silencing; format: cell-based, human; conditions: MCF7/ADR cells transfected with siRNA; FIG. 9B
Protocol: Specifically, the cells were stained with […] bodipyaminoacetaldehyde (BAAA), and then cultured at 37° C. for 45 minutes. An ALDH1 inhibitor, diethylaminobenzaldehyde (DEAB), was used as the negative control. The 1 ×10^6 stained cells were assayed using BD FACS Aria III. In this case, the positive fluorescent ALDH1-expressed cells (ALDH+) were detected in a green fluorescent channel (520 to 540 nm).
as §3

Molecule	tumor size in xenografted animal (xenografted tumor)	cell viability against doxorubicin (MCF7 and MCF7/ADR cells)	cell viability of common cancer cells (common cancer cells)	expression of P-glycoprotein (P-glycoprotein (P-gp))	self-proliferation ability (MCF7/ADR cells [1])	mRNA expression of markers (CD44, N-cadherin) (MCF7/ADR cells [2])	number of the cancer stem cells (MCF7/ADR cells [3])	expression of phosphorylated Akt (p-Akt) [4]	expression of phosphorylated PI3K (p-PI3K) [4]	expression of β-catenin [4]	number and size of the mammospheres (MCF7/ADR cells [1])	mRNA expression of markers (CD44, Integrin-α6, P-gp, Vimentin, N-cadherin, E-cadherin) (MCF7/ADR cells [2])	CD44+/CD24− population decreased by (MCF7/ADR cells [3])	ALDH+ population decreased by (MCF7/ADR cells [5])
CC1=C2C[C@H]3[C@@H](CC=C4C[C@@H](O)CC[C@@]43C)[C@@H]2CC[C@]12O[C@@H]1C[C@H](C)CN[C@H]1[C@H]2C [cyclopamine]	dramatically contracted	–	–	–	–	–	–	–	–	–	–	–	–	–
COc1cccc2c1C(=O)c1c(O)c3c(c(O)c1C2=O)C[C@@](O)(C(=O)CO)C[C@@H]3O[C@H]1C[C@H](N)[C@H](O)[C@H](C)O1 [doxorubicin]	–	higher cell viability	–	–	–	–	–	–	–	–	–	–	–	–
siCD109: siRNA against CD109 gene (Bioneer siRNA No. 1027641); sense SEQ ID NO: 5, anti-sense SEQ ID NO: 6 (sense GAGUACUGGAGCGGAUCUA; antisense UAGAUCCGUCCAGUACUC; listed as RNA, chemistry not given here)	–	–	no change	down-regulated	lowered	reduced	decreased	increased	increased	decreased	–	–	–	–
siEFEMP2: siRNA against EFEMP2 gene (Bioneer siRNA No. 1045872); sense SEQ ID NO: 7, anti-sense SEQ ID NO: 8 (sense CCCAAACCUGUGUCAACUU; antisense AAGUUGACACAGGUUUGGG; listed as RNA, chemistry not given here)	–	–	no change	down-regulated	lowered	reduced	decreased	increased	increased	decreased	–	–	–	–
siEXT1: siRNA against EXT1 gene (Bioneer siRNA No. 1049149); sense SEQ ID NO: 1, anti-sense SEQ ID NO: 2 (sense CACUUCUGGAUAACUCUA; antisense UAGAGUUAUCCCAGAAGUG; listed as RNA, chemistry not given here)	–	–	no change	down-regulated	lowered	–	decreased	increased	increased	decreased	significantly reduced	reduced	approximately 5.09%	approximately 2.1%
siLDHB: siRNA against LDHB gene (Bioneer siRNA No. 1083399); sense SEQ ID NO: 3, anti-sense SEQ ID NO: 4 (sense GAUUCAUCCCGUGUCAACA; antisense UGUUGACACGGGAUGAAUC; listed as RNA, chemistry not given here)	–	–	no change	down-regulated	lowered	–	decreased	increased	increased	decreased	significantly reduced	reduced	~5.52%	~3.21%
siRASIP1: siRNA against RASIP1 gene (Bioneer siRNA No. 1126933); sense SEQ ID NO: 9, anti-sense SEQ ID NO: 10 (sense CUGGAUAGUAACCCUUUCA; antisense UGAAAGGGUUACUAUCCAG; listed as RNA, chemistry not given here)	–	–	no change	down-regulated	lowered	reduced	decreased	increased	increased	decreased	–	–	–	–
siSERPINE1: siRNA against SERPINE1 gene (Bioneer siRNA No. 1135690); sense SEQ ID NO: 11, anti-sense SEQ ID NO: 12 (sense CACACAAAAGGUAUGAUCA; antisense UGAUCAUACCUUUUGUGUG; listed as RNA, chemistry not given here)	–	–	no change	down-regulated	lowered	reduced	decreased	increased	increased	decreased	–	–	–	–
